Non-standard residues stand in square brackets, D forms with d. Residues, ends and D or L forms follow the SMILES beside them. No end group written: not given here. Pmp = N[C@@H](Cc1ccc(CP(=O)(O)O)cc1)C(=O)O; dPmp = N[C@H](Cc1ccc(CP(=O)(O)O)cc1)C(=O)O; pY = N[C@@H](Cc1ccc(OP(=O)(O)O)cc1)C(=O)O

What is called Kd is the constant that tells how readily two partners part at equilibrium. Lower therefore signals a tighter complex. The Ki is a measure of affinity in units of concentration, obtained from inhibition or displacement. High values mean a looser hold on the target, low ones a stronger hold on the target. The term Km denotes the concentration of substrate that gives half-maximal velocity. In general, IC50 refers to the concentration that gives 50% inhibition. Lower therefore signals greater potency.

T3 sequence (P27986 333-428 limits assumed): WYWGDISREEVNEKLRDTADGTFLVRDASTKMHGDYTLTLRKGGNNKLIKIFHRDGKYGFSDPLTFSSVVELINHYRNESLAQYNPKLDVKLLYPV

In one test the target is T1, p85 SH2 domains (SH2/GST fusion protein) (Homo sapiens, UniProt P27986).
T1 construct: GST
T1 sequence (P27986 333-428 limits assumed): as above
The test is described as follows: Biospecific interaction analysis of binding to p85 SH2 domains. Particulars: isolated SH2 domains of PI 3-kinase p85; overview statement. The method, then: Therefore, mT-pY315 binding to p85 SH2 domains was analyzed using biospecific interaction analysis as previously described to obtain a more accurate estimate for KD. Series of data were obtained during real-time binding experiments with different concentrations of SH2/GST fusion protein (data not shown).
Turning to `CSCC[C@H](NC(=O)[C@@H]1CCCN1C(=O)[C@H](CCSC)NC(=O)[C@H](Cc1ccc(CP(=O)(O)O)cc1)NC(=O)[C@H](CCC(=O)O)NC(=O)[C@H](CCC(=O)O)NC(=O)[C@@H](N)CCC(=O)O)C(=O)N[C@@H](CCC(=O)O)C(=O)N[C@@H](CC(=O)O)C(=O)N[C@@H](CC(C)C)C(=O)N[C@@H](Cc1ccc(O)cc1)C(=O)O` [L-mT-Pmp315] (H-EEE[Pmp]MPMEDLY-OH), the Kd fell in the range of 0.01 to 0.02 µM.

In the next test the target is T2, Rat PTPase 1B (Rattus norvegicus, UniProt P20417).
T2 construct: cloning the full-length cDNA into the bacterial expression vector, PKK233-2; made in house; host or cells: bacteria (vector PKK233-2)
T2 sequence (P20417 1-432): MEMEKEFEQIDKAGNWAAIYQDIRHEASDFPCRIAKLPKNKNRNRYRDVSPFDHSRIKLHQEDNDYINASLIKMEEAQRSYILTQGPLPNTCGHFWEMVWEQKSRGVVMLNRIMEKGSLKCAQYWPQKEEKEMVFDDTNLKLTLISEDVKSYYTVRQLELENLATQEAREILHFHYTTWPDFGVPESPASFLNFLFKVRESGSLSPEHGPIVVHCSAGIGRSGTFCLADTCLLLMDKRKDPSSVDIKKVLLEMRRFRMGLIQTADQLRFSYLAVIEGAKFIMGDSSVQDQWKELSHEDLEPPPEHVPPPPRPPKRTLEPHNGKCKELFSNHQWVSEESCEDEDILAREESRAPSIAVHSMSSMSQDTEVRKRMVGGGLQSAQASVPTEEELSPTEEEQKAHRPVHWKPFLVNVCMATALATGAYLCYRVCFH
Nature of the test: PTPase 1B peptide dephosphorylation (Km) and inhibition (Ki). The format is biochemical. Particulars: Pmp and Pmp-peptides as inhibitors. The method, then:
The phosphopeptides were used as substrates of PTPase 1B, a single catalytic domain PTPase with a […] tissue distribution (Hunter et al., 1989, cell 58:1013). Rat PTPase 1B (Guan et al., 1990, Proc. Natl., Acad. Sci. USA 87:1501) was obtained by PCR and cloning the full-length cDNA into the bacterial expression vector, PKK233-2.
Sequence specificity for peptide dephosphorylation was observed, with apparent Km values ranging from <2 μM for the phospho-middle t sequence to >2 mM for pTyr itself (Table 3).
Several phosphono peptides were tested for the ability to inhibit PTPase 1B activity and KI values determined by methods known to those skilled in the art.
As for `CC[C@H](C)[C@H](NC(=O)[C@H](CC(=O)O)NC(=O)[C@@H](N)CCCNC(=N)N)C(=O)N[C@H](Cc1ccc(CP(=O)(O)O)cc1)C(=O)N[C@@H](CCC(=O)O)C(=O)N[C@H](C(=O)N[C@@H](CC(=O)O)C(=O)N[C@@H](Cc1ccc(O)cc1)C(=O)N[C@@H](Cc1ccc(O)cc1)C(=O)N[C@@H](CCCNC(=N)N)C(=O)N[C@@H](CCCCN)C(=O)O)[C@@H](C)O` [IR1155-1165(d-Pmp1158), RDI[D-Pmp]ETDYYRK] (H-RDI[dPmp]ETDYYRK-OH; N-terminus assumed), affinity was put at a Ki of 30 µM.

As to “RDIPmpETDPmpPmpRK [IR1155-1165(D,L-Pmp3)]”, the Ki was less than 2 µM.

On to `CC[C@H](C)[C@H](NC(=O)[C@H](CC(=O)O)NC(=O)[C@@H](N)CCCNC(=N)N)C(=O)N[C@@H](Cc1ccc(CP(=O)(O)O)cc1)C(=O)N[C@@H](CCC(=O)O)C(=O)N[C@H](C(=O)N[C@@H](CC(=O)O)C(=O)N[C@@H](Cc1ccc(O)cc1)C(=O)N[C@@H](Cc1ccc(O)cc1)C(=O)N[C@@H](CCCNC(=N)N)C(=O)N[C@@H](CCCCN)C(=O)O)[C@@H](C)O` [IR1155-1165(L-Pmp1158), RDI[L-Pmp]ETDYYRK] (H-RDI[Pmp]ETDYYRK-OH; N-terminus assumed), for which the Ki is 30 µM.

The test is the same for the next values; noted with them: apparent Km, phosphotyrosine and pY-peptides as substrates.
For `CSCC[C@H](NC(=O)[C@@H]1CCCN1C(=O)[C@H](CCSC)NC(=O)[C@H](Cc1ccc(OP(=O)(O)O)cc1)NC(=O)[C@H](CC(=O)O)NC(=O)CNC(=O)[C@H](CC(N)=O)NC(=O)CN)C(=O)N[C@@H](CO)C(=O)N1CCC[C@H]1C(=O)N[C@@H](CCCCN)C(=O)N[C@@H](CO)C(=O)O` [IRS-1(pY628), GNGDpYMPMSPKS] (H-GNGD[pY]MPMSPKS-OH), the Km is 100 µM.

Regarding `CC[C@H](C)[C@H](NC(=O)[C@H](CC(=O)O)NC(=O)[C@@H](N)CCCNC(=N)N)C(=O)N[C@@H](Cc1ccc(O)cc1)C(=O)N[C@@H](CCC(=O)O)C(=O)N[C@H](C(=O)N[C@@H](CC(=O)O)C(=O)N[C@@H](Cc1ccc(OP(=O)(O)O)cc1)C(=O)N[C@@H](Cc1ccc(O)cc1)C(=O)N[C@@H](CCCNC(=N)N)C(=O)N[C@@H](CCCCN)C(=O)O)[C@@H](C)O` [IR1155-1165(pY1162), RDIYETDpYYRK] (H-RDIYETD[pY]YRK-OH), the Km was 40 µM.

Take `CSCC[C@H](NC(=O)[C@@H]1CCCN1C(=O)[C@H](CCSC)NC(=O)[C@H](Cc1ccc(OP(=O)(O)O)cc1)NC(=O)CNC(=O)[C@H](CC(=O)O)NC(=O)[C@H](CC(=O)O)NC(=O)[C@@H](N)[C@@H](C)O)C(=O)N[C@@H](CO)C(=O)N1CCC[C@H]1C(=O)NCC(=O)N[C@H](C(=O)O)C(C)C` [IRS-1(pY608), TDDGpYMPMSPGV] (H-TDDG[pY]MPMSPGV-OH): the Km was found to be 30 µM.

As to `CC[C@H](C)[C@H](NC(=O)[C@H](CC(=O)O)NC(=O)[C@@H](N)CCCNC(=N)N)C(=O)N[C@@H](Cc1ccc(OP(=O)(O)O)cc1)C(=O)N[C@@H](CCC(=O)O)C(=O)N[C@H](C(=O)N[C@@H](CC(=O)O)C(=O)N[C@@H](Cc1ccc(O)cc1)C(=O)N[C@@H](Cc1ccc(O)cc1)C(=O)N[C@@H](CCCNC(=N)N)C(=O)N[C@@H](CCCCN)C(=O)O)[C@@H](C)O` [1R1155-1165(pY1158), RDIpYETDYYRK] (H-RDI[pY]ETDYYRK-OH), the Km was 30 µM.

For `C[C@@H](O)[C@H](N)C(=O)N[C@@H](CCC(=O)O)C(=O)N1CCC[C@H]1C(=O)N[C@@H](CCC(=O)O)C(=O)N[C@@H](Cc1ccc(OP(=O)(O)O)cc1)C(=O)N[C@@H](CCC(N)=O)C(=O)N1CCC[C@H]1C(=O)NCC(=O)N[C@@H](CCC(=O)O)C(=O)O` [pp60^c-src (pYS27), TEPEpYQPGE] (H-TEPE[pY]QPGE-OH), the Km stood at 8 µM.

For the compound `CC[C@H](C)[C@H](NC(=O)[C@H](CC(=O)O)NC(=O)[C@@H](N)CCCNC(=N)N)C(=O)N[C@@H](Cc1ccc(O)cc1)C(=O)N[C@@H](CCC(=O)O)C(=O)N[C@H](C(=O)N[C@@H](CC(=O)O)C(=O)N[C@@H](Cc1ccc(O)cc1)C(=O)N[C@@H](Cc1ccc(OP(=O)(O)O)cc1)C(=O)N[C@@H](CCCNC(=N)N)C(=O)N[C@@H](CCCCN)C(=O)O)[C@@H](C)O` [IR1155-1165(pY1163), RDIYETDYpYRK] (H-RDIYETDY[pY]RK-OH), the Km is 30 µM.

Consider `CC[C@H](C)[C@H](NC(=O)[C@H](CCC(N)=O)NC(=O)[C@@H]1CCCN1C(=O)[C@H](C)NC(=O)[C@H](CCSC)NC(=O)[C@@H]1CCCN1C(=O)[C@H](CCSC)NC(=O)[C@H](Cc1ccc(OP(=O)(O)O)cc1)NC(=O)[C@H](CCC(=O)O)NC(=O)[C@H](CC(N)=O)NC(=O)[C@H](CCC(=O)O)NC(=O)[C@@H](N)CCCNC(=N)N)C(=O)N[C@@H](Cc1c[nH]cn1)C(=O)O` [middle t(pY298), RENEpYMPMAPQIH] (H-RENE[pY]MPMAPQIH-OH), for which the Km is less than 2 µM.

For the compound `CC[C@H](C)[C@H](NC(=O)[C@H](CO)NC(=O)[C@H](CCC(=O)O)NC(=O)[C@H](CC(=O)O)NC(=O)[C@@H](N)CCCCN)C(=O)N[C@@H](CC(=O)O)C(=O)N[C@@H](Cc1ccc(OP(=O)(O)O)cc1)C(=O)N[C@H](C(=O)N1CCC[C@H]1C(=O)N[C@@H](CCSC)C(=O)N[C@@H](CC(C)C)C(=O)N[C@@H](CC(=O)O)C(=O)N[C@@H](CCSC)C(=O)N[C@@H](CCCCN)C(=O)NCC(=O)N[C@@H](CC(=O)O)C(=O)O)C(C)C` [mPDGF-Rβ(pY719), KDESIDpYVPMLDMKGD] (H-KDESID[pY]VPMLDMKGD-OH), the Km was determined as 8 µM.

For a further test, the system named is IRS-1/PI 3-kinase association. Nature of the test: Inhibition of association of PI 3-kinase activity (CHO cell extract) with immobilized phosphorylated IRS-1. Particulars: dose-response studies. The format is biochemical. The method, then:
Inhibiting interactions between IRS-1 and PI 3-kinase IRS-1 produced in a baculovirus expression system was adsorbed to anti-peptide (IRS-1) antibodies and phosphorylated by solubilized insulin receptors (which were then washed away). […] After incubation and additional washing, PI 3-kinase activity associated with the immobilized IRS-1 was determined as described, Auger et al. PI 3-kinase activity associated with IRS-1 only after phosphorylation by the insulin receptor. Various peptides were added during incubation of immobilized IRS-1 with the ChO cell extract (PI 3-kinase) to determine their ability to block association. Concentration dependent effects of phosphorylated vs. unphosphorylated middle T and IRS-1 […] YMXM sequences were determined. […] A detailed study of these effects is a major target of this proposal.
Consider “pY628: phosphorylated form of IRS-1 YMXM sequence Y628 (SEQ ID NO: 26, Table 1) (RKGNGDG[pY]MPMSPKSV)”, for which the “ED50 for inhibition of IRS-1/PI 3-kinase association” value was no more than 0.05 µM.

A further test concerns the target T3, N-terminal p85 SH2/GST fusion protein (Homo sapiens, UniProt P27986).
T3 construct: N-terminal p85 SH2/GST fusion proteins (100 nM)
The test is described as follows: biochemical. In kind it is binding.
Details: not given
Here is the method: Peptide Binding to Isolated Glutathione S-Transferase/SH2 Domain Fusion Proteins was determined as follows. N-terminal p85 SH2/GST fusion proteins (100 nM) (Hu et al., 1992, Mol. Cell. Biol. 12:981-990), 35 fmol of HPLC-purified, [^125 I]Bolton-Hunter-treated phosphopeptide (67 nCi) and varying concentrations of unlabeled peptides were combined in 200 μl total volume of 20 mM tris-HCl, 250 mM NaCl, 0.1% bovine serum albumin, 10 mM dithiothreitol, pH 7.4. Glutathione-agarose (25 μl of a 1:4 aqueous slurry, Molecular Probes) was added and the samples were incubated at 22° C. for 4 h. Following centrifugation for 5 min at 12,000×g, supernatant solutions were removed by aspiration and [^125 I]radioactivity associated with the pellets was determined with a […].
Phosphopeptide and phosphonopeptide binding to p85 SH2 domains. To investigate the mechanism of phosphonopeptide inhibition of association direct binding to an isolated SH2 domain of the p85 of PI 3-kinase was analyzed. In the assay, tracer amounts of [^125 I]-labeled phosphopeptide, SH2 domain/GST fusion protein, and varying concentrations of unlabeled peptides were incubated together along with glutathione-agarose. […] ID50 values were determined as the concentration of unlabeled peptide required to inhibit 50% of specific [^125 I]phosphopeptide binding. […]
`CSCC[C@H](NC(=O)[C@@H]1CCCN1C(=O)[C@H](CCSC)NC(=O)[C@@H](Cc1ccc(CP(=O)(O)O)cc1)NC(=O)[C@H](CCC(=O)O)NC(=O)[C@H](CCC(=O)O)NC(=O)[C@@H](N)CCC(=O)O)C(=O)N[C@@H](CCC(=O)O)C(=O)N[C@@H](CC(=O)O)C(=O)N[C@@H](CC(C)C)C(=O)N[C@@H](Cc1ccc(O)cc1)C(=O)O` [D-mT-Pmp315] (H-EEE[dPmp]MPMEDLY-OH): the IC50 was found to be 131 µM.

`CSCC[C@H](NC(=O)[C@@H]1CCCN1C(=O)[C@H](CCSC)NC(=O)[C@H](Cc1ccc(CP(=O)(O)O)cc1)NC(=O)[C@H](CCC(=O)O)NC(=O)[C@H](CCC(=O)O)NC(=O)[C@@H](N)CCC(=O)O)C(=O)N[C@@H](CCC(=O)O)C(=O)N[C@@H](CC(=O)O)C(=O)N[C@@H](CC(C)C)C(=O)N[C@@H](Cc1ccc(O)cc1)C(=O)O` [L-mT-Pmp315] (H-EEE[Pmp]MPMEDLY-OH): half-maximal inhibition (IC50) was put at 7.2 µM.

Source of the values: patent US5801149A, “Inhibition of signal transduction molecules” (Joslin D-abetes Center, Inc., priority 1995, dated 1998).
